“And” between values parts separate entries of the source, which are not always exact repeats. Identical values can stand only once.

For series [1], the system named is SZ95 human sebocyte cells. The series can be described thus: Inhibition of de novo lipogenesis (14C-acetate incorporation) in cultured human sebocytes. Format: cell-based. The conditions noted are these: for IC50: Homo sapiens, SZ95 sebocytes, 14C-acetate incorporation into lipids relative to vehicle, read-out: C9302E Sebocyte IC50. Here is the method:
SZ95 sebocytes were grown in Human Sebocyte Growth Medium (HSGM) (Sebomed® medium (Biochrom: F8205) supplemented with 10% heat-inactivated fetal bovine serum, 1% penicillin/streptomycin, 1 mM calcium chloride and 5 ng/mL recombinant human epidermal growth factor (Life Tech: PHG0311)). At 90% confluence, cells were washed three times with PBS and then detached with 0.05% Trypsin-EDTA. Cells were centrifuged and resuspended in HSGM containing 10% charcoal-stripped serum (Life Tech: 12676-029). Cells were then plated in 24-well plates at a density of 0.25×10^6 cells/well and were incubated overnight to enable cell adherence to the culture plate.
Cells were treated with a dose response of compound, and each dose was assayed in triplicate. Briefly, compounds were dissolved in DMSO stocks and diluted 1:1000 into charcoal-stripped media. 0.1% DMSO without compound was used as the vehicle control. After a 1 hour preincubation with compound or vehicle, 0.25 μCi ^14C-acetic acid (American Radiolabeled Chemicals: ARC0158B) was added to each well. Plates were then incubated for an additional two hours. At the end of the incubation period, cells were removed from incubator, placed on ice, and then washed twice with ice-cold PBS to remove free ^14C-acetic acid. Plates were sealed and stored at −20° C. until analysis.
Plates were shaken for 1 hour at room temperature to induce lysis. Lysates were transferred to individual 1.5 mL polypropylene tubes, and wells were washed with 175 μl of PBS, which was added to lysates. 450 μl of a 1:1 (v/v) chloroform:methanol solution was then added to each tube, and then all tubes were vortexed for 10 seconds and centrifuged at 20,000×g for 5 minutes at room temperature to separate aqueous from organic phase. A 25 μl aliquot was removed from the bottom organic layer of each sample and added to 6 mL OptiPhase supermix (PerkinElmer: 1200-439) scintillation fluid. Counts of ^14C incorporated into lipids were assessed by scintillation counting. DNL (counts of ^14C incorporated into lipids) was expressed for compound treated cells relative to DNL in the vehicle control treated cells for determination of EC50 values. For a subset of the compounds tested, a second aliquot (3×35 μl) of the organic layer of each sample was removed and applied to a TLC lane (Analtech Silica Gel G Plates). Radiolabeled lipids were resolved using a 2-solvent system. Solvent 1 contained a 100:100:100:40:36 mixture of ethyl acetate:isopropyl alcohol:CHCl3:MeOH:0.25% KCl and solvent 2 a 70:27:3 hexane:diethyl ether:acetic acid mix. The TLC plate was dried under nitrogen for 30 minutes and [^14C]-calibrators added to a vacant lane. Bands were visualized and quantitated using a Molecular Dynamics' Storm 860 Phosphorimager system following 18-36 hours exposure to a Phosphorimager screen.

In the next series the test system is sebum production. The series is described as follows: Effect on sebum levels in healthy human volunteers (Sebumeter, Sebutape lipid classes). Format: in vivo. To be noted: 200 mg BID oral, 14 days. The procedure:
Otherwise healthy overweight or obese subjects were admitted to the Clinical Research Institute and dosed orally with Example 1 (200 mg BID) or placebo for 14 consecutive days. On two days pre-treatment and days 13 and 14 (post-treatment) of the study, sebum production was assessed by Sebumeter® measurements and sebum was collected for lipid component identification and quantification. In order to prepare the area of the skin where the Sebumeter® measurements and the sebum collection will be performed, the skin surface has to be cleansed from any lipids and debris. The targeted area on the forehead and the cheeks were gently blotted using an oil-absorbing tissue or gauze. After blotting, wipes or gauze pads presoaked in 70% ethanol solution were used to wipe the forehead and cheeks. Following cleansing, the skin was allowed to dry and sebum measurements were made using a clean, calibrated Sebumeter® SM 815 (Courage+Khazaka, Köln, Germany) in accordance with the manufactures directions at 5 minutes and 3 hours post-cleansing. Sebum levels determined by Sebumeter® are expressed as relative change from pre-treatment baseline for subjects treated with placebo and Example 1 and are presented in FIG. 4. The Sebutape® technique was used for sebum collection. At approximately 9 AM, following facial cleansing and the 5 minute post-cleanse sebumeter measurement, 4 Sebutape® strips were applied: 2 patches placed right and left on the forehead cranial of the middle line of the eye and 2 patches on the cheeks caudal of the middle line of the eye. The Sebutape® was peeled from its backing paper using defatted forceps and affixed to the surface with gentle pressure to assure adequate adhesion. Surgical gloves were to be worn by the person handling the tape. After 1 hour, the 4 patches were removed; the 2 left patches and the 2 right patches were placed in acid-washed, Teflon-capped screw-cap vials. Sebum lipid species were quantified from the Sebutape® samples by Metabolon using their TrueMass® technology platform. Analysis of these sebum samples enabled assessment of the effect of Example 1 vs. placebo on individual sebum lipid classes. […] Individual subject level and box plots depicting means with confidence intervals are shown for sebum triglycerides, wax esters, and free fatty acids (FIG. 5).

The conditions of series [2]: in vivo.
Another series deals with T1, CYP2B6 (Homo sapiens, UniProt P20813).
T1 construct: from tissue; host or cells: liver microsomes
T1 sequence (P20813 1-491): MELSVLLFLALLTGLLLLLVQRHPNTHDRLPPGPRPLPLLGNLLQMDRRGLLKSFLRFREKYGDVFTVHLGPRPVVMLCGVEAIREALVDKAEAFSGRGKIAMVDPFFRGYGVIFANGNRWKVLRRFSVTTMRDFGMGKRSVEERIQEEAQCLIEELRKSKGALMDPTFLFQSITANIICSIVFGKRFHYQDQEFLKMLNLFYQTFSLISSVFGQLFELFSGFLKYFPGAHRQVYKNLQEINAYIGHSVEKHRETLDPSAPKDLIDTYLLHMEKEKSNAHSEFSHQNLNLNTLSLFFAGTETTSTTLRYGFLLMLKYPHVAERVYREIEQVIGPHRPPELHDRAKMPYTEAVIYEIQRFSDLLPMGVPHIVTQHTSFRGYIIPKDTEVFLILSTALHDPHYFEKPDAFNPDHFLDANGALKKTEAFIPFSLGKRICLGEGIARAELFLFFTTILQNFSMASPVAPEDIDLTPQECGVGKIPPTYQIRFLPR
The series can be described thus: P450 inhibition in liver microsomes with probe substrates. Format: in vitro ADME. A general note: Microsomes from liver hold many membrane-bound enzymes, among them those of drug oxidation.

The target in a further series is hACC2 (Homo sapiens, UniProt O00763). The series is described as follows: Radiometric ACC2 inhibition assay. It counts as biochemical.
Sequence of hACC2 (O00763 whole entry): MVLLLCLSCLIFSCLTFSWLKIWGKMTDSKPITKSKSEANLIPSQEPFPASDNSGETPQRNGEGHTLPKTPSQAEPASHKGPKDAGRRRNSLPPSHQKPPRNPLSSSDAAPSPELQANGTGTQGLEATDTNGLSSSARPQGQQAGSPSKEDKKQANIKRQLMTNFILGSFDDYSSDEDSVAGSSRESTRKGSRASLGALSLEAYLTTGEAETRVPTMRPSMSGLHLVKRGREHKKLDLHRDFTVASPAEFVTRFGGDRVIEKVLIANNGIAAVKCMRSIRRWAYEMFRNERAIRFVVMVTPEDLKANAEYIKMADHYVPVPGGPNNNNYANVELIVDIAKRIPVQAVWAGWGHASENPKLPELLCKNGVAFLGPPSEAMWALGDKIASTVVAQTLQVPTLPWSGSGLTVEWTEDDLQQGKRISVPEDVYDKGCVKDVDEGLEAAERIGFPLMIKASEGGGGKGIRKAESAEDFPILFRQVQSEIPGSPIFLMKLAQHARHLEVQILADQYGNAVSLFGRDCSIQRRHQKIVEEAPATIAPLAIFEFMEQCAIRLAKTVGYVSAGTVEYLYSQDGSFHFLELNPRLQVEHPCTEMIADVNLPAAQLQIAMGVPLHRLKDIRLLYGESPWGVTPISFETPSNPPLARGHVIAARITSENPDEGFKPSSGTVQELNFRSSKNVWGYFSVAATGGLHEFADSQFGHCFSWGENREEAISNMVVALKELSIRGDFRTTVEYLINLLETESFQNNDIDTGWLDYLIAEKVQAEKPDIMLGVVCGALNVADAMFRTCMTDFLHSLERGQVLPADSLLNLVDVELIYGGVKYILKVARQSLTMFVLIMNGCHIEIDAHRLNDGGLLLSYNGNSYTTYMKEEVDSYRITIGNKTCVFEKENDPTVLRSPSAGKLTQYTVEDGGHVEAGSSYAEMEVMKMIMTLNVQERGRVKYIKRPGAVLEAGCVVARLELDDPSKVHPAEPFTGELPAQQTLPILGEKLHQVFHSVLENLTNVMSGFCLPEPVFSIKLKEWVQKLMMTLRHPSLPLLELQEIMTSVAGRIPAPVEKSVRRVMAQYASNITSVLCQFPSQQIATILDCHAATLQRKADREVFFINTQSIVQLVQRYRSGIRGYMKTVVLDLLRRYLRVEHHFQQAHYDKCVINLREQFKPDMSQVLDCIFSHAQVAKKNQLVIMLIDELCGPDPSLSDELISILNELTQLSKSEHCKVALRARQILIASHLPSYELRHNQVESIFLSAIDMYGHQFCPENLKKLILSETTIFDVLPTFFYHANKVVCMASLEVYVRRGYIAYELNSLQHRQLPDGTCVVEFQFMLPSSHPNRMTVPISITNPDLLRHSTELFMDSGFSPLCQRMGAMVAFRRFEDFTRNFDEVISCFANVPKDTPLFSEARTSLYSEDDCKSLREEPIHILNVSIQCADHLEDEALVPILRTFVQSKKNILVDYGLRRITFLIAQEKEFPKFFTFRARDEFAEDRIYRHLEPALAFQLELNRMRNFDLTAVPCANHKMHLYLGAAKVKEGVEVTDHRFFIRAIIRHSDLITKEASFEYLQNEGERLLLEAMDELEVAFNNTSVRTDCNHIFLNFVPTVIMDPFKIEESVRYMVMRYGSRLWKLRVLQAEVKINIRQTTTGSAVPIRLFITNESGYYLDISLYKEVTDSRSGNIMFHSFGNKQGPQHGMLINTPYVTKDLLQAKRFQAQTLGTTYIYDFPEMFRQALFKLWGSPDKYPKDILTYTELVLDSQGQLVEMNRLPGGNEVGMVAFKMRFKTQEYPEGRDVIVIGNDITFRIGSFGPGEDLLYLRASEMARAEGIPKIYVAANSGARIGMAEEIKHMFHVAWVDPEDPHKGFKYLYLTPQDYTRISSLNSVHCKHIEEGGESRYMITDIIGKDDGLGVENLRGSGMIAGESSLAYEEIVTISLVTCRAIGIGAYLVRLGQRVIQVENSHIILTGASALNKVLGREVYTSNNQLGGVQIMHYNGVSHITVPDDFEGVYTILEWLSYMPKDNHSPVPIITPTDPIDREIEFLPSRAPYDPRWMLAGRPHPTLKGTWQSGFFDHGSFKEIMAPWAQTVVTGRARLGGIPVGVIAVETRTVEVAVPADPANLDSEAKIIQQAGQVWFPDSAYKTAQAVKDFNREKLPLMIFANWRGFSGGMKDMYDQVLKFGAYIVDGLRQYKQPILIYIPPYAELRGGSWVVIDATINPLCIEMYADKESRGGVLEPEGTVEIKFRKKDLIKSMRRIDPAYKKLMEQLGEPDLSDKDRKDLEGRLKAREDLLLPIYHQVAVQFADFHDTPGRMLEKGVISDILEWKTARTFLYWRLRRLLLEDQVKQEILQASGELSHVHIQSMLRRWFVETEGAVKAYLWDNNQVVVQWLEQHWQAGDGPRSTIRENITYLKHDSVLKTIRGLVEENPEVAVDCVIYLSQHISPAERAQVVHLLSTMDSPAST
Series [3] concerns the target T2, recombinant human ACC2 (rhACC2) (Homo sapiens, UniProt O00763, V2141I).
T2 construct: made in house; host or cells: CHO cells, tetracycline-induced (pcDNA5 FRT TO-TOPO)
The series can be described thus: Transcreener ADP detection FP assay, recombinant human ACC2 inhibition. Format: biochemical. The conditions noted are these: recombinant human ACC2, 50 μM ATP; read-out: Transcreener Assay hACC2 IC50.

The target in another series is hACC1 (Homo sapiens, UniProt Q13085). The series is described as follows: Radiometric ACC1 inhibition assay. It counts as biochemical.

T2 sequence (O00763 whole entry V2141I): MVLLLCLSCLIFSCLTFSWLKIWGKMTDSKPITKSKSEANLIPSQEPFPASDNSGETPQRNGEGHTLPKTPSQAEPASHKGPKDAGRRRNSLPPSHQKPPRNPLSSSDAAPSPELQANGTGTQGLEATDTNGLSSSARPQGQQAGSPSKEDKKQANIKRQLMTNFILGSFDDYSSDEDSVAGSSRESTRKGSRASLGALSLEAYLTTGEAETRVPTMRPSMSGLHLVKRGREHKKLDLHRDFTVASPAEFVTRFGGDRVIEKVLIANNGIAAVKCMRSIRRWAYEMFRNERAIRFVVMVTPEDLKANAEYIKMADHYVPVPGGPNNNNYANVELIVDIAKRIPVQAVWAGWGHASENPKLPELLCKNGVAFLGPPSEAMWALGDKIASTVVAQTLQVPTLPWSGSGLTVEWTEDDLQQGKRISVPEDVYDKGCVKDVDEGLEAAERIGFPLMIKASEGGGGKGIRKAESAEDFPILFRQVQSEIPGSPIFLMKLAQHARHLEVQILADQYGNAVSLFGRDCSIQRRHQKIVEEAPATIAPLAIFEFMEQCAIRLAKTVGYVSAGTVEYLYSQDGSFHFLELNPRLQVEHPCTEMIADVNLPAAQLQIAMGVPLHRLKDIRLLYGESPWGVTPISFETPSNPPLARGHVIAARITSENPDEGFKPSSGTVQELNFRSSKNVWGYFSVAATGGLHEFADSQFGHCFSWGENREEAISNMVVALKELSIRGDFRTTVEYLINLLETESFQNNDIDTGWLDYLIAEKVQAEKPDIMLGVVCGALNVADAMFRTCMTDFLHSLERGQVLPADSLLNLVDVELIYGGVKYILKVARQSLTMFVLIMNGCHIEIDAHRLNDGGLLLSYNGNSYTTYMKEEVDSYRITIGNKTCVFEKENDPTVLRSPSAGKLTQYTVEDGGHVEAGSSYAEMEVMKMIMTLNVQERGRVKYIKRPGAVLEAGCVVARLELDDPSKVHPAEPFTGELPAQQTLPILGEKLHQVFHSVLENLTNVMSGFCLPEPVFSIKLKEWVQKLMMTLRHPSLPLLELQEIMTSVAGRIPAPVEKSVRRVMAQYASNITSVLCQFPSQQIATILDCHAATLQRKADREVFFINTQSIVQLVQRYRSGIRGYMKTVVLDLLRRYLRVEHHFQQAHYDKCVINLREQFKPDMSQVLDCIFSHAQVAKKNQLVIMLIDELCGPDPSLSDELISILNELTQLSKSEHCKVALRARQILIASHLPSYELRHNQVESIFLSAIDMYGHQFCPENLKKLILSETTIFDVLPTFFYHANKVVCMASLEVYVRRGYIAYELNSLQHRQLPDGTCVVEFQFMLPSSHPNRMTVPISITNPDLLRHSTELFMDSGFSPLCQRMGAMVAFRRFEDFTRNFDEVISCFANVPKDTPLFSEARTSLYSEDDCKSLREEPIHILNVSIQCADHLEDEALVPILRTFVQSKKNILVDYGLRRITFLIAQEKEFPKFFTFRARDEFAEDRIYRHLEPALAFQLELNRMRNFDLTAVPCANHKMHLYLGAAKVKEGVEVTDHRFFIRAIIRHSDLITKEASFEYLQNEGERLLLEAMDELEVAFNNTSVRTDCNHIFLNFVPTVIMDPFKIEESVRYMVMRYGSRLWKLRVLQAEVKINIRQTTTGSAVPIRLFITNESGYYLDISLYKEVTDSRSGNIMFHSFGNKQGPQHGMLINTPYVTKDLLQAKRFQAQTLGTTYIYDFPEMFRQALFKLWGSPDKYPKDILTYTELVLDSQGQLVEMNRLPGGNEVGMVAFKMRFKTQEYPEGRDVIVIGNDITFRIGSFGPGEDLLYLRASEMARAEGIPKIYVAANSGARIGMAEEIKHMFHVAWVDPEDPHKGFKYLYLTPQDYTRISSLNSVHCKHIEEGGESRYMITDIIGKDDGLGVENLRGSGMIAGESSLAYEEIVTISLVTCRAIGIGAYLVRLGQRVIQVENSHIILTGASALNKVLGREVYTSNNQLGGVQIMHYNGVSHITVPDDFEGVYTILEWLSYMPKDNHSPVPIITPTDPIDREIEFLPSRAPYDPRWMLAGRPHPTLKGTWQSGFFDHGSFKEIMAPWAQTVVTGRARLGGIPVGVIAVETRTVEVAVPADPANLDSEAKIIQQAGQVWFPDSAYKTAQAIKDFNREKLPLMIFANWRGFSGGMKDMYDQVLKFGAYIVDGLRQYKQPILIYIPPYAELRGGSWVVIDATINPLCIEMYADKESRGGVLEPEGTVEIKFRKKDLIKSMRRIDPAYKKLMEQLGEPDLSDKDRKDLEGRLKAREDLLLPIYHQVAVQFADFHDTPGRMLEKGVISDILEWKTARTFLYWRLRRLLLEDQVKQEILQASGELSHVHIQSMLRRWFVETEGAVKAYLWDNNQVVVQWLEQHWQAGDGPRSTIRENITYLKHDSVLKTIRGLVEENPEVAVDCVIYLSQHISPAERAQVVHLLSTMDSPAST

On to `Cc1nc2ccc(C(=O)N3CCC4(CC3)CC(=O)c3c(cnn3C(C)C)C4)cc2[nH]1` [Example 1, 1-isopropyl-1′-(2-methyl-1H-benzo[d]imidazole-5-carbonyl)-4,6-dihydrospiro[indazole-5,4′-piperidin]-7(1H)-one], for which the 50% inhibitory concentration (IC50) (in general, the concentration that gives 50% inhibition) in series [1] is 679 nM; against CYP2B6, more than 30000 nM; against hACC2 it was 27 nM; in series [3] it was 45 nM; on hACC1 it was 11 nM. In addition, the “sebum free cholesterol change relative to PBO” value with sebum production is on record as “no change”. In addition, in the series with sebum production, the “sebum squalene levels, increase relative to PBO” value was 2.6 fold. In the series on sebum production (PBO adjusted), the “reduction of sebum production by Sebumeter from baseline” value is 49% and > 49%. Moreover, the “reduction of sebum free fatty acids relative to placebo” value with sebum production (Sebutape) is reported as “approximately 49%”. In addition, the “reduction of sebum wax esters relative to placebo” value in the series on sebum production (Sebutape) is reported as approximately 53%. Besides, the “decrease of sebum triglycerides” value in the series on sebum production (Sebutape, PBO adjusted) is on record as 66%. Also, in the series with sebum production (vs. placebo), the “levels of sebum free fatty acids (in words)” value is “reduced”. Also, the “levels of sebum wax esters (in words)” value with sebum production (vs. placebo) was “reduced”. Moreover, in series [2], the “exposures (AUC and Cmax) vs. dose” value is “increased dose-proportionally”. Also, the “effect of food on absorption” value in series [2] (po) was “modestly decreased the rate but not the extent”. For the same molecule, the “frequency of adverse events vs. dose and duration” value in series [2] (po) was “no dose- or duration-related increase”.

For the molecule `CC(C)n1ncc2c1C(=O)CC1(CCN(C(=O)c3ccc4ccc(N)nc4c3)CC1)C2` [Example 3, 1′-(2-aminoquinoline-7-carbonyl)-1-isopropyl-4,6-dihydrospiro[indazole-5,4′-piperidin]-7(1H)-one], the half-maximal inhibitory concentration (IC50) in series [1] was 90 nM; on hACC2, 5 nM; against hACC1, 5 nM. In addition, in series [1] (SZ95 cells, TLC, vs. vehicle), the “incorporation of 14C-acetate into free cholesterol” value is recorded as “did not alter”. For the same molecule, the “incorporation of 14C-acetate into SZ95 cell lipid species containing or comprised of fatty acids” value in series [1] (TLC, cholesterol esters, triglycerides, free fatty acids, diglycerides, monoglyceride, phospholipid, vs. vehicle) is on record as “clear inhibition”.
